From patent US4112101A, “N-(Pyridyl)-1H-(or 2H) tetrazole-5-carboxamide derivatives for the prevention of immediate type hypersensitivity reactions” (American Home Products Corporation, priority 1977, dated 1978)
Structures can show the parent of a compound that is named as a salt.

Tested on: passive cutaneous anaphylaxis using rat homocytotropic antibody
Assay: rat passive cutaneous anaphylaxis test (rat PCA test)
Format: in vivo
Experimental: The technique employed to establish the anti-allergic activity of the 1H-tetrazole-5-carboxamide derivatives is reported in Immunology, vol. 16, pp. 749-760 (1969) and involves four male Charles River rats (200-250 grams body weight) per group to provide a control, a host for administration of a standard anti-allergic compound (disodium cromoglycate) and animals for the test compound. The rats were injected intracutaneously on their shaved backs with sera from rats immunized with egg albumin and pertussis vaccine. Twenty-four hours after the initial injections, the test compound is administered intraperitoneally or orally at a dosage level of 200 milligrams per kilogram host body weight or less. Five minutes later one milliliter of a 0.5 percent solution of Evans blue dye and 8 milligrams of egg albumin is injected intravenously. After 40 minutes, the animal is sacrificed and the bleb size on its back is measured. The mean bleb size for the animals administered the test compound is calculated and the percent inhibition is determined by comparison with the control animal.
In other words, the compounds of this invention block the release of mediators commonly resulting from the antigen-antibody reaction as exemplified in a passive cutaneous anaphylaxis test (PCA) using rat homocytotropic antibody -- a known correlate of human reaginic antibody.

With `O=C(Nc1ccccn1)c1nn[nH]n1` [Example 1, N-(2-Pyridinyl)-1H-tetrazole-5-carboxamide, sodium salt] the “% inhibition” value (intraperitoneal (i.p.), dose 1.0 mg/kg) was 82.6%, the “% inhibition” value (intraperitoneal (i.p.), dose 10 mg/kg) was 99.0% and the “% inhibition” value (intraperitoneal (i.p.), dose 100 mg/kg) was 72.5%. The “% inhibition” value (intraperitoneal (i.p.), dose .01 mg/kg) was 24.8%, the “% inhibition” value (intraperitoneal (i.p.), dose .1 mg/kg) was 41.9% and the “% inhibition” value (oral (p.o.), dose 1 mg/kg) was 62.6%. For the same compound, the “% inhibition” value (oral (p.o.), dose 10 mg/kg) was 94.8%, the “% inhibition” value (oral (p.o.), dose 100 mg/kg) was 100.0% and the “% inhibition” value (oral (p.o.), dose .01 mg/kg) was 40.4%. For the same compound, the “% inhibition” value (oral (p.o.), dose .1 mg/kg) was 25.1%.
